Data set [1] deals with TE-induced rat prostatic hyperplasia. Kind of data set: Rat model of TE-induced prostatic hyperplasia: prostate weight. It counts as in vivo. The procedure: In this example, the ability of testosterone enanthate (TE) to induce prostatic hyperplasia in rat prostate was examined. Briefly, twenty-five (25) 8-week old male Sprague-Dawley rats (Harlan, USA) were dosed by intramuscular injection with 25 mg TE (Lot#80G010A, Abraxis Bioscience, Phoenix, Ariz.) per rat, once a week, on days 0, 7, 14 and 21. Five (5) out of 25 rats were sacrificed pre-TE treatment and 5 of the remaining 20 rats were sacrificed weekly. The ventral lobes of the prostates were harvested for analysis. […] Additionally, the increase in rat prostatic weight was linearly related to sustained TE exposure. The half-life of TE in the rat blood was approximately 10.5 days (Anderson R A, J Clin Endocrinol Metab., (1996) 81(3):896-901).
In this example, PEGPH20 was administered to TE-induced prostatic hyperplasic rats to evaluate its effect on prostate weight. Testosterone enanthate was administered by intramuscular injection and PEGPH20 (diluted in normal saline) was administered intravenously. Following treatment, the animals were sacrificed and the ventral lobes of the prostates were harvested for analysis. Prostate weight was measured using an electronic scale.
Testosterone enanthate was administered by intramuscular injection and PEGPH20 (diluted in normal saline) was administered intravenously. Following treatment, the animals were sacrificed and the ventral lobes of the prostates were harvested for analysis. Prostate weight was measured using an electronic scale.
In this example, the time-dependence of treatment of rat BPH with PEGPH20 was evaluated by administering PEGPH20 at various time points. Testosterone enanthate was administered by intramuscular injection and PEGPH20 (diluted in normal saline) was administered intravenously. Following treatment, the animals were sacrificed and the ventral lobes of the prostates were harvested for analysis. Prostate weight was measured using an electronic scale.
In this example, the effect of treatment with PEGPH20 was compared to treatment with finasteride using the rat TE-prostatic hyperplasia model. Testosterone enanthate was administered by intramuscular injection, PEGPH20 (diluted in normal saline) was administered intravenously and finasteride was administered intraperitoneally. On day 21 the animals were sacrificed and the ventral lobes of the prostates were harvested for analysis. Prostate weight was measured using an electronic scale.
In this example, the effect of combination therapy with PEGPH20 and finasteride was evaluated. PEGPH20 was administered at a dose of either 0.82 mg/kg (low dose) or 2 mg/kg (high dose). Testosterone enanthate was administered by intramuscular injection, PEGPH20 (diluted in normal saline) was administered intravenously and finasteride was administered intraperitoneally. On day 21 the animals were sacrificed and the ventral lobes of the prostates were harvested for analysis. Prostate weight was measured using an electronic scale.
Percent (%) inhibition was determined according to the formula: ((Control-treated)/Control)×100. […] The prostatic water content of each group was calculated from the wet weight and the dry weight and found to be the same for all groups (˜80%). Therefore, the change in prostate weight cannot be attributed to decreased tissue water.
Testosterone enanthate was administered by intramuscular injection, PEGPH20 was administered intravenously or by intra-prostatic injection and DepoGel vehicle or DepoPH20 were administered by intra-prostatic injection. On day 21 the animals were sacrificed and the ventral lobes of the prostates were harvested for analysis. Prostate weight was measured using an electronic scale.
(§1) In this study, 25 mg TE was administered […] to each rat on days 1 and 7. 50 μL of 4700 U/mL (0.18 mg/mL) MVL-PH20F40 and 50 μL MVL-Vehicle were administered intraprostatically on day 7. […]

Data set [2] relates to prostatic stroma and stromal HA. Kind of data set: Prostatic histology: stromal HA (biotinylated HABP) and stromal proliferation (H&E). Type of data set: in vivo. The conditions noted are these: rat prostate stroma; substance alone (PEGPH20 0.82 mg/kg iv, day 12; TE 25 mg/rat im days 0 and 8, day 18). The procedure: In this example, the effect of PEGPH20 on prostatic stroma and stromal HA of normal and TE-induced prostatic hyperplasia rats was analyzed by prostatic histology, including hematoxylin and eosin staining and IHC staining. Stromal proliferation was determined by visually comparing the size of the stroma. Testosterone enanthate was administered by intramuscular injection and PEGPH20 (diluted in normal saline) and control were administered intravenously. Following treatment, the animals were sacrificed and the ventral lobes of the prostates were harvested for analysis.
Prostate tissues were fixed in 10% neutral buffered formalin in PBS for 24 hours, dehydrated with gradient ethanol, cleared with xylene, and embedded in paraffin. Paraffin block was cut to 5 μm sections. Tissue sections were dewaxed, rehydrated and processed by standard hematoxylin and eosin (H&E) staining. Histochemical localization of HA was carried out using a biotinylated-HABP probe (bHABP, Cat#400763-1A, Associates of Cape Cod, Mass.). Sections were deparaffinized in xylene, 2×5 min, hydrated in 100% ethanol, for 2×3 min, and in 95% ethanol for 1 min, then rinsed in distilled water, incubated at 37° C. for 20 min in a trypsin solution, and rinsed in PBS for 2×2 min. […]

The conditions of data set [3]: cited from earlier work.
The next data set has as its system prostate stromal cells. Put plainly: TUNEL assay, apoptosis of stromal cells. Type of data set: in vivo, rat. How it is done: In this example, the ability of PEGPH20 to cause apoptosis of stromal cells was analyzed. In situ detection of cell apoptosis by TUNEL assay was based on a reaction for in situ terminal deoxynucleotidyl-transferase (TdT)-mediated biotinylated UTP nick-end labelling (TUNEL). This was essentially performed by using the FragEL DNA (Cat# QIA39-1EA, Calbiochem, Gibbstown, N.J.) according to the manufacturer's directions. In brief, de-paraffinized tissue sections were treated with proteinase K (0.02 mg/mL, Cat#25530, Invitrogen, Carlsbad, Calif.). The slides were then washed in Tris buffered saline (TBS), and endogenous peroxidase was blocked for 5 min in 3% H2O2 diluted in methanol. After washes in TBS, sections were treated with 1×TdT equilibration buffer at room temperature for 30 min and subsequently incubated with TdT labelling reaction mix ([…]) for 1.5 h at 37° C. The slides were rinsed in TBS and mounted using Fluorein-FragEL mounting media, then sealed with nail polish. The number of TUNEL-positive cells was counted on each section at ×200 under a light microscope.
as §1

Molecules are shown by their SMILES.

Regarding `CCCCCCC(=O)O[C@H]1CC[C@H]2[C@@H]3CCC4=CC(=O)CC[C@]4(C)[C@H]3CC[C@]12C` [TE, testosterone enanthate], in data set [1] (25 mg TE per rat im once a week for a month), the “increase in prostate size” value is given as approximately 3 fold. Besides, the “Prostatic Weight (g) Mean ± SD” value in data set [1] (TE 25 mg/rat days 0, 7, 14, sacrificed day 21) is recorded as 1.54 ± 0.07 g; in data set [1] (group 1: 3 wk TE (25 mg/rat days 0, 7, 14), day 21), 1.33 ± 0.23 g; in data set [1] (group 1: TE 25 mg/rat days 0, 7, sacrificed day 28), 1.49 ± 0.47 g; in data set [1] (group 2: TE 25 mg/rat days 0, 7, 14, 21, sacrificed day 28) it was 1.76 ± 0.18 g; in data set [1] (group 3: TE 25 mg/rat days 0, 7, sacrificed day 21), 1.57 ± 0.09 g. Also, the “Prostatic Weight Mean ± SD” value in data set [1] (TE 3 wks (25 mg/rat days 0, 7, 14), day 21) is listed as 1.64 ± 0.12 g. In addition, the “increase in prostate weight post TE exposure” value in data set [1] (day 7, TE 25 mg/rat im) stood at 18.9%; in data set [1] (day 18, TE 25 mg/rat im days 0, 7 and 14), 85.7%. For the same compound, in data set [2], the “Effect on HA” value is on record as “Increased”. In addition, in data set [2], the “Effect on Stroma” value is listed as “Increased proliferation”. Besides, in data set [3], the “half-life of TE in the rat blood” value is recorded as “approximately 10.5 days”. Moreover, the “Apoptotic cells/section Mean ± SD” value with prostate stromal cells (TE 7 d) is 4.6 ± 2.51 cells/section; in the data set on prostate stromal cells (TE 18 d), 1.75 ± 1.71 cells/section.
Consider `CC(C)(C)NC(=O)[C@H]1CC[C@H]2[C@@H]3CC[C@H]4NC(=O)C=C[C@]4(C)[C@H]3CC[C@]12C` [finasteride, (5α,17β)-N -(1,1-dimethethylethy)-3-oxo-4-azaandrost-1-ene-17-carboxamide], for which, in data set [1] (TE days 0, 7, PEGPH20 0.82 mg/kg iv QOD days 7-20 or finasteride 25 mg/kg ip daily days 7-20, day 21, vs TE alone P<0.01), the “inhibition of prostate growth” value is reported as “approximately 37%”. Moreover, in data set [1] (TE days 1 and 7, finasteride 2.5 mg/kg ip daily starting on day 7), the “reduction in prostate size relative to vehicle control” value stood at 18.7%. For the same compound, the “% Inhibit” value in data set [1] (group 4: 3 wk TE, finasteride (25 mg/kg ip daily, 2 wk)) was 25.2%. Also, in data set [1] (group 4: 3 wk TE, finasteride (25 mg/kg ip daily, 2 wk), day 21, P 0.007), the “Prostatic Weight (g) Mean ± SD” value is on record as 1.00 ± 0.19 g.

The values above are taken from US9333244B2, “Composition and lipid formulation of a hyaluronan-degrading enzyme and the use thereof for treatment of benign prostatic hyperplasia” (Halozyme, Inc., priority 2011, dated 2016).
